# Where two headings read alike, the source gives them in different places. Marks after values point to notes of the source that are not given here.
# Experiments:
# [1] = tested on: P. lilacinum strain 251 spores; assay: spore viability (germination rate on agar) of P. lilacinum spores in carrier fluid after storage at 30° C.; type: cell-based, Purpureocillium lilacinum; settings: for decline in spore viability at day 1 and after storage: fluids not within the scope of the invention
# Description: (§1) 3 g of P. lilacinum strain 251 pure spore powder were transferred into a formulation vessel (IKA Type DT-20 mixing vessel with dispersion tool for Ultra Turrax) using a sterile spoon. 12 mL of fluid were added into the respective formulation vessel and dispersed using ultra turrax tube drive control for 1 min at 3000 rpm; change direction after 30 sec. After this 2.8 mL were transferred in four sample bottles (Wheaton Serum vial, Type I) leaving little headspace and closed tight using crimpneck caps (Macherey—Nagel type N 13) Afterwards all sample bottles were transferred to an incubator set at 30° C. and stored for a given time.
# (§2) In regular intervals a sample was retrieved from the storage location and analyzed for spore viability. Therefore the original samples were thoroughly homogenized. Aliquots of 0.25 g or […] of each sample are transferred into 50 mL falcon tubes. The tubes were filled up to 25 g using a sterile aqueous solution containing 2% Tween 80 and homogenized by vortexing to achieve the first dilution step (1:100 dilution). This dilution is used for further dilution and spotting on agar.
# (§3) For evaluation of spore germination rate prepare a 1:30000 dilution based on the 1:100 dilution achieved by multiple automated dilution (pipetting robot, 96 well plate). Afterwards 12×12 cm agar plates are taken and spotted with 10 times […] of each sample using an automated 12-Channel pipet. Wait until liquid is soaked up by agar and transfer agar plate to an incubator and incubate at 25° C. for 17 hours. Open the plate and place it under the microscope. Randomly choose one area per spot and record the number of germinated and non-germinated spores that are within the designated field. At least 200 spores per sample need to be evaluated. If needed count more than one field per spot.
# [2] = tested on: Isaria fumosorosea spores; assay: spore viability of Isaria fumosorosea spores in carrier fluid after storage, Method 2 (flow cytometry); type: cell-based
# Description: Method 2: 0.5 g of Isaria fumosoresea pure spore powder were transferred into an Erlenmeyer flask using a sterile spoon. 24.5 mL of fluid were dispersed using Ultra-Turrax (IKA; Type T 25 D) for 1 min at 3,000 rpm. After this, 2.0 mL were transferred in 20 sample bottles (Wheaton Serum vial, Type I) leaving little headspace and closed tight using crimpneck caps (Macherey—Nagel type N 13). Afterwards all sample bottles were transferred to an incubator set at 30° C. and stored for a given time.
# In regular intervals a sample was retrieved from the storage location and analyzed for spore viability. For this purpose, the original samples were thoroughly homogenized. Aliquots of 0.5 g of each sample were transferred into 100 mL-Erlenmeyer flask. The flasks were filled up to 50 g using a sterile aqueous solution containing 0.1% Break Thru® 5240 (Evonik, Industries) and homogenized on a magnetic stirrer (Thermo Fisher Scientific: Cimarec™) at least for 15 min with 750 rpm to achieve the first dilution step (1:100 dilution). This dilution was used for further dilution.
# Not all samples mixed well or mixed at all in 0.1% Break Thru 5240. For these samples, 500 μL Neo-wett (Kwizda Agro GmbH) and/or a small amount (knife tip) Metaupon®-OMT (LEUNA Tenside GmbH) were also added to the aqueous solution.
# After homogenization 1 mL were transferred into a 1.5 mL tube and were centrifuged for 15 min at 14,000 rpm (Thermo Fisher Scientific, Type Megafuge 8R). The supernatant (=upper phase) was discarded by using a pipette. The tubes were filled up to 1 mL using a sterile aqueous solution containing 0.1% Neo-wett and homogenized by vortexing.
# To assess fungal viability, a method based on flow cytometry was used.
# [3] = tested on: Beauveria Bassiana spores; assay: spore viability (germination rate on agar) of Beauveria bassiana spores in carrier fluid after storage at 30° C.; type: cell-based
# Description: as §1, with “1.5 g” for “3 g”, “of Beauveria Bassiana” for “of P. lilacinum strain 251”, “spoon. 13.5” for “spoon. 12”
# as §2
# as §3, with “1:15000” for “1:30000”, “20°” for “25°”
# [4] = tested on: Isaria fumosorosea spores; assay: spore viability of Isaria fumosorosea spores in carrier fluid after storage at 30° C., Method 1 (germination on agar); type: cell-based; settings: Method 1
# Description: as §1, with “Method 1: 1.5 g” for “3 g”, “of Isaria fumosorosea” for “of P. lilacinum strain 251”, “spoon. 13.5” for “spoon. 12”
# as §2
# For evaluation of spore germination rate a 1:15000 dilution based on the 1:100 dilution achieved by multiple automated dilution (pipetting robot, 96 well plate) was prepared. Afterwards 12×12 cm agar plates were taken and spotted with 10 times 5 μL of each sample using an automated 12-Channel pipet. After all liquid is soaked up by agar the agar plates were incubated at 23° C. for 16 hours.
# [5] = tested on: Penicillium bilaii (ATCC 20851) spores; assay: spore viability (germination rate on agar) of Penicillium bilaii spores in carrier fluid after storage at 30° C.; type: cell-based
# Description: as §1, with “1.5 g” for “3 g”, “of Penicillium bilaii (ATCC 20851)” for “of P. lilacinum strain 251”, “spoon. 13.5” for “spoon. 12”
# as §2
# as §3, with “1:15000” for “1:30000”, “20°” for “25°”
# [6] = P. lilacinum strain 251 in the liquid, day 1
# [7] = Purpureocillium lilacinum, 35 d
compound,measurement,setting,value
2-(2-Ethoxyethoxy)ethyl acetate; Diethylene glycol monoethyl ether acetate [n-Butyldiglycolacetat],spore viability [%] at day 1,[1]; [6],93.2%
same,spore viability [%] after 3 m (87-92 d),"[1]; storage at 30° C., 87-92 d",82.7%
same,spore viability [%] after 5 w (35 d),"[1]; storage at 30° C., 35 d",89.3%
"CCCCOCCO [Butylcellosolve, Ethylenglycolmonobutylether, reference compound]",decline in spore viability at day 1 and after storage,[1]; text summary of Table I,steep decline in spore viability
"CCOCCOCCO [Carbitol, Diethylenglycolmonoethyl ether, reference compound]",spore viability [%] after 1 m (27 d),[2],12.0%
same,spore viability [%] after 2 w (~14 d),[2],13.7%
same,spore viability [%] at day 1,[2],78.0%
"COC(C)COC(C)CO (centres unmarked) [Dowanol DPM, Dipropylene Glycol monomethyl ether]",spore viability [%] at day 1,"[3]; Beauveria bassiana, day 1",83.9%
same,spore viability [%] after 2 w (14 d),[3]; storage at 30° C.,61.0%
same,spore viability [%] after 5 w (35 d),[3]; storage at 30° C.,36.6%
same,spore viability [%] at day 1,[1]; [6],91.0%
same,spore viability [%] after 2 w (12-15 d),"[1]; storage at 30° C., 12-15 d",95.3%
same,spore viability [%] after 1 m (27-28 d),"[1]; storage at 30° C., 27-28 d",93.3%
same,spore viability [%] after 2 m (51-55 d),"[1]; storage at 30° C., 51-55 d",74.7%
"COC(C)COC(C)COC(C)=O (centres unmarked) [Dowanol DPMA, Dipropylene glycol methyl ether acetate]",spore viability [%] at day 1,"[4]; I. fumosorosea, day 1",87.7%
same,spore viability [%] after 1 m (27 d),"[4]; storage at 30° C., 27 d",63.6%
same,spore viability [%] after 7 m (210 d),"[4]; storage at 30° C., 210 d",31.4%
same,spore viability [%] at day 1,[1]; [6],99.1%
same,spore viability [%] after 3 m (87-92 d),"[1]; storage at 30° C., 87-92 d",35.7%
same,spore viability [%] after 5 w (35 d),"[1]; storage at 30° C., 35 d",93.0%
"CC(=O)OCC(C)OC(C)=O (centres unmarked) [Dowanol PGDA, Propylenglycol Diacetat]",spore viability [%] at day 1,"[3]; Beauveria bassiana, 1 d",90.6%
same,spore viability [%] after 3 w (21 d),"[3]; Beauveria bassiana, 21 d",51.6%
same,spore viability [%] at day 1,"[2]; Isaria fumosorosea, 1 d",97.0%
same,spore viability [%] after 1 m (27 d),"[2]; Isaria fumosorosea, 27 d",53.0%
same,spore viability [%] 3 m@30° C. (83-85 d),[5]; Penicillium bilaii,36.4%
same,spore viability [%] 6 w@30° C. (41-43 d),[5]; Penicillium bilaii,69.3%
same,spore viability [%] initial (1-2 d),[5]; Penicillium bilaii,93.6%
same,spore viability [%] after 3 m (87-92 d),[1]; Purpureocillium lilacinum,88.4%
same,"spore viability after storage for 2 or 3 months, respectively",[1]; Purpureocillium lilacinum,≥ 80%
same,spore viability [%] at day 1,"[1]; Purpureocillium lilacinum, 1 d",98.8%
same,spore viability [%] after 5 w (35 d),[1]; [7],98.2%
"CCCCCCOCCO [Hexylcellosolve, Ethylenglycolmonohexylester, reference compound]",spore viability [%] after 3 m (87-92 d),[1],6.0%
same,spore viability [%] after 5 w (35 d),[1],27.4%
same,spore viability [%] at day 1,[1],79.5%
same,decline in spore viability at day 1 and after storage,[1]; text summary of Table I,steep decline in spore viability
"COCCOCCOCCO [Methoxytriglycol, Triethylenglycol monomethyl ether, reference compound]",spore viability [%] at day 1,"[3]; Beauveria bassiana, 1 d",79.7%
same,spore viability [%] after 2 w (14 d),[3]; Beauveria bassiana,12.3%
same,spore viability [%] after 5 w (35 d),[3]; Beauveria bassiana,1.5%
same,decline in spore viability after storage under given conditions,"[3]; Table III, fluids not within the scope of the invention",steep decline in spore viability
same,spore viability [%] 3 m@30° C. (83-85 d),[5]; Penicillium bilaii,30.3%
same,spore viability [%] 6 w@30° C. (41-43 d),[5]; Penicillium bilaii,43.1%
same,spore viability [%] initial (1-2 d),[5]; Penicillium bilaii,74.3%
same,spore viability [%] after 3 m (87-92 d),[1]; Purpureocillium lilacinum,19.9%
same,spore viability [%] at day 1,"[1]; Purpureocillium lilacinum, 1 d",83.3%
same,spore viability [%] after 5 w (35 d),[1]; [7],55.3%
same,decline in spore viability at day 1 and after storage,[1]; text summary of Table I,steep decline in spore viability
"COCC(C)OCC(C)OC (centres unmarked) [Proglyde DMM, Dipropylene glycol dimethyl ether]",spore viability [%] at day 1,"[3]; Beauveria bassiana, 1 d",88.4%
same,spore viability [%] after 2 w (14 d),[3]; Beauveria bassiana,48.0%
same,spore viability [%] after 5 w (35 d),[3]; Beauveria bassiana,21.8%
same,spore viability [%] 3 m@30° C. (83-85 d),[5]; Penicillium bilaii,10.5%
same,spore viability [%] 6 w@30° C. (41-43 d),[5]; Penicillium bilaii,29.6%
same,spore viability [%] initial (1-2 d),[5]; Penicillium bilaii,54.6%
same,spore viability [%] after 3 m (87-92 d),[1]; Purpureocillium lilacinum,75.4%
same,spore viability [%] at day 1,"[1]; Purpureocillium lilacinum, 1 d",98.8%
same,spore viability [%] after 5 w (35 d),[1]; [7],96.0%
"CCCOCCO [Propylcellosolve, Ethylenglycolmonopropylether, reference compound]",spore viability [%] after 3 m (87-92 d),[1],0.6%
same,spore viability [%] after 5 w (35 d),[1],8.1%
same,spore viability [%] at day 1,[1],76.2%
same,decline in spore viability at day 1 and after storage,[1]; text summary of Table I,steep decline in spore viability
"COCCOCCOCCOCCOC [Tetraglyme, Tetraethylenglycol diether]",spore viability [%] after 1 m (27-28 d),[1],94.8%
same,spore viability [%] after 2 m (51-55 d),[1],93.2%
same,spore viability [%] after 2 w (12-15 d),[1],97.6%
same,spore viability [%] after 7 m (210 d),[1],83.5%
same,spore viability [%] at day 1,[1],97.2%
same,spore viability after storage for 7 months at 30° C. (in words),[1]; text summary of Table I,exceptional spore viability
"CCCCOCCOCCOCCO [Triethylenglycol monobutylether, Triethylenglycol-monobutylether]",spore viability [%] after 1 m (27-28 d),[1]; Purpureocillium lilacinum,57.5%
same,spore viability [%] after 3 m (87-92 d),[1]; Purpureocillium lilacinum,50.8%
same,spore viability [%] at day 1,"[1]; Purpureocillium lilacinum, 1 d",77.5%
Polyethylene glycol Monooleate [Alkamuls A],spore viability [%] after 1 m (27 d),[2],90.7%
same,spore viability [%] after 2 w (~14 d),[2],93.0%
same,spore viability [%] at day 1,[2],94.4%
Polyethyleneglycol-400 monolaurate [Radiasurf 7423],spore viability [%] after 1 m (27 d),[2],42.3%
same,spore viability [%] after 2 w (~14 d),[2],58.0%
same,spore viability [%] at day 1,[2],86.7%
same,spore viability [%] after 1 m (27-28 d),[1],93.8%
same,spore viability [%] after 2 m (51-55 d),[1],79.7%
same,spore viability [%] after 2 w (12-15 d),[1],91.4%
same,spore viability [%] after 7 m (210 d),[1],36.9%
same,spore viability [%] at day 1,[1],90.8%
same,"spore viability after storage for 2 or 3 months, respectively",[1],≥ 80%
Polyethylenglycol- 300 [Pluriol E300],spore viability [%] after 1 m (27 d),[2],87.0%
same,spore viability [%] after 3 months,[2],45.0* %
same,spore viability [%] at day 1,[2],96.0%
Tween 80,spore viability [%] after 1 m (27 d),[2],72.0%
same,spore viability [%] after 2 w (~14 d),[2],76.4%
same,spore viability [%] at day 1,[2],96.2%
Tween 85,spore viability [%] after 1 m (27 d),[2],98.0%
same,spore viability [%] after 6 months,[2],96.1*** %
same,spore viability [%] at day 1,[2],98.9%
same,spore viability after storage for 7 m at 30° C.,[2],≥ 50%
same,spore viability [%] after 2 months,[5],92.0$ %
same,spore viability [%] initial (1-2 d),[5],99.0%

# Source: patent publication US20220015355A1, “NOVEL CARRIER FLUIDS FOR LIQUID FUNGAL SPORE FORMULATIONS” (priority 2018, published 2022)
